Data reported in patent US12454494B2, “Process for the reduction of gas emission from farm manure” (Alzchem Trostberg GmbH, priority 2018, dated 2025).

Tested on: cattle liquid manure
Assay: Example 5: methane and CO2 emissions from cattle liquid manure during 170 days storage with Compositions 1, 2, 4, 5, 6
Conditions: cf. Example 5
Method: After stirring, the pH value and conductivity in the mixture were measured, and then the wide-neck container was immediately sealed tightly. An opening was drilled in the lid of the wide-neck container, in which a sealed gas storage bag (nominal volume 5.6 liters) was connected and in which the released gas volume was collected. This structure prevented atmospheric oxygen from entering the wide-neck container. This prevented CO2 from the air from falsifying the measurement results. The mixture was stored for exactly 170 days without stirring or agitation at a temperature of 23±1° C. and at an air pressure of 960 to 980 hPa and at 493 m above standard sea level (NHN). At regular intervals, the filled gas storage bag was exchanged, the stored gas volume was determined volumetrically, and the gas composition was analyzed by gas chromatography. […] After stirring, the pH value and conductivity in the mixture were measured, and then the wide-neck container was immediately sealed tightly. […] At regular intervals, the filled gas storage bag was exchanged, the stored gas volume was determined volumetrically, and the gas composition was analyzed by gas chromatography. […] After stirring, the pH value and conductivity in the mixture were measured, and then the wide-neck container was immediately sealed tightly. […]

Row | SMILES | Effect alone on the emission of methane and carbon dioxide
1 | O=C([O-])[O-].[Ca+2] [calcium carbonate] | no impact
2 | [Ca+2].[OH-].[OH-] [calcium hydroxide] | additional effect
